The test system of data set [1] is Parkinson's disease psychosis (PDP) patients. Description: Phase III six-week randomized double-blind placebo-controlled study in PDP patients. It counts as in vivo, human. How it is done:
A six-week, multi-center, randomized, double-blind, placebo-controlled study was conducted in PDP patients. The purpose of the study was to evaluate the safety and efficacy of 40 mg pimavanserin compared to placebo in the treatment of PDP.
A total of 199 patients were enrolled in the study and randomized on a one-to-one basis to receive either 40 mg of pimavanserin or placebo once daily for six weeks, following a two-week screening period including brief psycho-social therapy. Patients also received stable doses of their existing anti-Parkinson's therapy throughout the study.
At the screening visit, a trained member of the site staff worked with the patient's caregiver to devise a structured plan of social interaction for the patient and caregiver to follow at home. This brief non-pharmacologic psychosocial counseling was intended to help the patient and caregiver to manage the symptoms and provide standard of care prior to the blinded investigational treatment phase. Following the screening visit, patients received two follow-up phone calls (˜3- and 7-days from the screening visit) to review the plan and evaluate progress. Only those patients who met entry criteria at baseline were randomized to receive 40 mg pimavanserin or matching placebo for the 6-week treatment period.
The maximum duration of the study for each subject was approximately 12 weeks. Pimavanserin was administered in tablet form, once daily by mouth in 40 mg doses (2 tablets of 20 mg). Placebo was administered with visibly matching tablets, using the same route and regimen. The safety of subjects was assessed by monitoring adverse events, physical examinations, vital signs, clinical laboratory tests (hematology, clinical chemistry, and urinalysis), and electrocardiograms.
Primary Clinical Endpoint: The combined score for the modified 9-item hallucinations and delusions domains of the Scale for the Assessment of Positive Symptoms (SAPS-PD).
Key Secondary Endpoint: Parts II-III of the Unified Parkinson's Disease Rating Scale (UPDRS), which measures motor function.
Other Secondary Endpoints: Changes in the Clinical Global Impression Scale (CGI) with emphasis on severity (CGI-S) and improvement (CGI-I) of psychosis.
Exploratory Endpoints: the Caregiver Burden Scale, and Scales for Outcomes in Parkinson's Disease-Sleep scale (SCOPA-Sleep).
Note: mixed model repeated measures (MMRM) method was applied in primary analysis of the intent-to-treat (ITT) population. The significance test was based on least-square mean change from baseline for each arm using a 2-sided […]=0.05.

For data set [2], the system named is learning of a simple auto-shaped response. To be noted: mice; intraperitoneal doses up to 32 mg/kg; cited from earlier work.
Data set [3] deals with hyperactivity induced by the N-methyl-D-aspartate antagonist MK-801. To be noted: mice; oral doses of 3 and 10 mg/kg; cited from earlier work.
In data set [4] the test system is gating deficit induced by DOI. To be noted: rat; doses of 1 and 3 mg/kg SC; cited from earlier work.
For data set [5], the system named is DOI ((±)-2,5-dimethoxy-4-iodoamphetamine, a serotonin agonist) induced head twitches. To be noted: rat; oral doses of 3 and 10 mg/kg; cited from earlier work.

As to `CC(C)COc1ccc(CNC(=O)N(Cc2ccc(F)cc2)C2CCN(C)CC2)cc1` [Pimavanserin, N-(1-methylpiperidin-4-yl)-N-(4-fluorophenylmethyl)-N′-(4-(2-methylpropyloxy)phenylmethyl)carbamide], the “safety and tolerability in the trial” value in data set [1] (40 mg once daily oral, 6 weeks) was “safe and well tolerated”. In data set [1] (40 mg once daily oral, 6 weeks, n = 95, ITT, MMRM least-square mean change from baseline, P-value 0.001 vs placebo), the “SAPS-PD Mean Change at Day 43” value is given as −5.79. In data set [1] (40 mg once daily oral, 6 weeks, placebo 1), the “serious adverse event: urinary tract infection (number of patients)” value is 3. Besides, in data set [1] (40 mg once daily oral, 6 weeks, placebo 8.5%), the “adverse event incidence: falls” value came to 10.6%. In addition, in data set [1] (40 mg once daily oral, 6 weeks, placebo 11.7%), the “adverse event incidence: urinary tract infection” value is on record as 13.5%. The “serious adverse event: psychotic disorder (number of patients)” value in data set [1] (40 mg once daily oral, 6 weeks, placebo zero) is recorded as 2. Moreover, the “CGI-I scale (secondary efficacy measure)” value in data set [1] (40 mg once daily oral, 6 weeks, versus placebo, p=0.001) was “highly significant improvement”. The “Caregiver Burden Scale” value in data set [1] (40 mg once daily oral, 6 weeks, versus placebo, p=0.002) was “highly significant improvement”. In data set [1] (40 mg once daily oral, 6 weeks, versus placebo, p=0.012), the “daytime wakefulness on SCOPA-sleep scale” value is listed as “significant improvements”. The “nighttime sleep on SCOPA-sleep scale” value in data set [1] (40 mg once daily oral, 6 weeks, versus placebo, p=0.045) is “significant improvements”. Further, the “improvement in psychosis at day 43 on SAPS-PD” value in data set [1] (40 mg once daily oral, day 43, blinded independent centralized raters) was 5.79 point. Further, in data set [1] (40 mg once daily oral, day 43, p=0.001), the “treatment difference on SAPS-PD versus placebo” value is listed as 3.06 points. Moreover, the “change in combined UPDRS II & III scores” value in data set [1] (40 mg once daily oral, mean change from baseline to day 43) is −1.40. Also, the “motor function (UPDRS Parts II-III, non-inferiority versus placebo)” value in data set [1] (two-sided 95 percent CI of treatment difference, pre-specified margin of 5 points, day 43) is on record as “did not worsen motor function”. Also, the “disruption of learning of a simple auto-shaped response” value in data set [2] was “failed to disrupt learning”. Also, in data set [3], the “attenuation of MK-801 induced hyperactivity” value is listed as “effective”. Also, the “reversal of DOI induced sensory motor gating deficit” value in data set [4] is “potently reversed the gating deficit”. Also, the “activity in DOI induced head twitches” value in data set [5] is “effective”.

Values taken from patent publication US9446037B2, “Methods for the treatment of parkinson's disease psychosis using pimavanserin” (ACADIA Pharmaceuticals Inc., priority 2012, dated 2016).
